Source: patent publication US10383950B2, “Methods and compositions of carrier systems for the purpose of intracellular drug targeting” (HELMHOLTZ-ZENTRUM FÜR INFEKTIONSFORSCHUNG GMBH, priority 2014, dated 2019)

Assays:
[1] = cited from earlier work
[2] = In vitro release of gentamicin (dialysis membrane setup); details: 37° C., PBS pH 7.4, 10.000 MWCO cellulose membrane

gentamicin
pKa [1]: 8.2 | time at which gentamicin became detectable in the bulk release medium [2]: ≤ 1 min | time to complete release / permeation of gentamicin [2]: 1.5 h
